One may read the pIC50 as −log10 of the IC50, conventionally taken in molar units.

pIC50: −log10 of the molar value.

The source of these data is US6423689B1, “Peptidyl calcium channel blockers” (Warner-Lambert Company, priority 1997, dated 2002).

The assay addresses T1, N-type Ca2+ channels in IMR-32 cells (Homo sapiens, UniProt Q00975).
T1 construct: host or cells: IMR-32 cells, differentiated with dibutyryl cAMP and bromodeoxyuridine
The assay is described as follows: Inhibition of N-type calcium flux in IMR-32 cells (Indo-1 fluorescence, nitrendipine present). It counts as cell-based. Conditions: for pIC50: IMR-32 cells, 5 μM nitrendipine, K+ depolarization. The method, boiled down: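 Differentiated IMR-32 cells (7–13 days) were loaded with 5 μM Indo-1 AM, preincubated with compound for 10 min at 30° C, and depolarized with KCl/CaCl2 stimulation solution, with 5 μM nitrendipine blocking L-channels. Peak-minus-basal 400/490 nm emission ratio was plotted against drug concentration, and IC50 came from four-parameter logistic fits.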
A general note: A change in cytosolic calcium serves as a functional read-out for many receptors and channels.

T1 sequence (Q00975 whole entry): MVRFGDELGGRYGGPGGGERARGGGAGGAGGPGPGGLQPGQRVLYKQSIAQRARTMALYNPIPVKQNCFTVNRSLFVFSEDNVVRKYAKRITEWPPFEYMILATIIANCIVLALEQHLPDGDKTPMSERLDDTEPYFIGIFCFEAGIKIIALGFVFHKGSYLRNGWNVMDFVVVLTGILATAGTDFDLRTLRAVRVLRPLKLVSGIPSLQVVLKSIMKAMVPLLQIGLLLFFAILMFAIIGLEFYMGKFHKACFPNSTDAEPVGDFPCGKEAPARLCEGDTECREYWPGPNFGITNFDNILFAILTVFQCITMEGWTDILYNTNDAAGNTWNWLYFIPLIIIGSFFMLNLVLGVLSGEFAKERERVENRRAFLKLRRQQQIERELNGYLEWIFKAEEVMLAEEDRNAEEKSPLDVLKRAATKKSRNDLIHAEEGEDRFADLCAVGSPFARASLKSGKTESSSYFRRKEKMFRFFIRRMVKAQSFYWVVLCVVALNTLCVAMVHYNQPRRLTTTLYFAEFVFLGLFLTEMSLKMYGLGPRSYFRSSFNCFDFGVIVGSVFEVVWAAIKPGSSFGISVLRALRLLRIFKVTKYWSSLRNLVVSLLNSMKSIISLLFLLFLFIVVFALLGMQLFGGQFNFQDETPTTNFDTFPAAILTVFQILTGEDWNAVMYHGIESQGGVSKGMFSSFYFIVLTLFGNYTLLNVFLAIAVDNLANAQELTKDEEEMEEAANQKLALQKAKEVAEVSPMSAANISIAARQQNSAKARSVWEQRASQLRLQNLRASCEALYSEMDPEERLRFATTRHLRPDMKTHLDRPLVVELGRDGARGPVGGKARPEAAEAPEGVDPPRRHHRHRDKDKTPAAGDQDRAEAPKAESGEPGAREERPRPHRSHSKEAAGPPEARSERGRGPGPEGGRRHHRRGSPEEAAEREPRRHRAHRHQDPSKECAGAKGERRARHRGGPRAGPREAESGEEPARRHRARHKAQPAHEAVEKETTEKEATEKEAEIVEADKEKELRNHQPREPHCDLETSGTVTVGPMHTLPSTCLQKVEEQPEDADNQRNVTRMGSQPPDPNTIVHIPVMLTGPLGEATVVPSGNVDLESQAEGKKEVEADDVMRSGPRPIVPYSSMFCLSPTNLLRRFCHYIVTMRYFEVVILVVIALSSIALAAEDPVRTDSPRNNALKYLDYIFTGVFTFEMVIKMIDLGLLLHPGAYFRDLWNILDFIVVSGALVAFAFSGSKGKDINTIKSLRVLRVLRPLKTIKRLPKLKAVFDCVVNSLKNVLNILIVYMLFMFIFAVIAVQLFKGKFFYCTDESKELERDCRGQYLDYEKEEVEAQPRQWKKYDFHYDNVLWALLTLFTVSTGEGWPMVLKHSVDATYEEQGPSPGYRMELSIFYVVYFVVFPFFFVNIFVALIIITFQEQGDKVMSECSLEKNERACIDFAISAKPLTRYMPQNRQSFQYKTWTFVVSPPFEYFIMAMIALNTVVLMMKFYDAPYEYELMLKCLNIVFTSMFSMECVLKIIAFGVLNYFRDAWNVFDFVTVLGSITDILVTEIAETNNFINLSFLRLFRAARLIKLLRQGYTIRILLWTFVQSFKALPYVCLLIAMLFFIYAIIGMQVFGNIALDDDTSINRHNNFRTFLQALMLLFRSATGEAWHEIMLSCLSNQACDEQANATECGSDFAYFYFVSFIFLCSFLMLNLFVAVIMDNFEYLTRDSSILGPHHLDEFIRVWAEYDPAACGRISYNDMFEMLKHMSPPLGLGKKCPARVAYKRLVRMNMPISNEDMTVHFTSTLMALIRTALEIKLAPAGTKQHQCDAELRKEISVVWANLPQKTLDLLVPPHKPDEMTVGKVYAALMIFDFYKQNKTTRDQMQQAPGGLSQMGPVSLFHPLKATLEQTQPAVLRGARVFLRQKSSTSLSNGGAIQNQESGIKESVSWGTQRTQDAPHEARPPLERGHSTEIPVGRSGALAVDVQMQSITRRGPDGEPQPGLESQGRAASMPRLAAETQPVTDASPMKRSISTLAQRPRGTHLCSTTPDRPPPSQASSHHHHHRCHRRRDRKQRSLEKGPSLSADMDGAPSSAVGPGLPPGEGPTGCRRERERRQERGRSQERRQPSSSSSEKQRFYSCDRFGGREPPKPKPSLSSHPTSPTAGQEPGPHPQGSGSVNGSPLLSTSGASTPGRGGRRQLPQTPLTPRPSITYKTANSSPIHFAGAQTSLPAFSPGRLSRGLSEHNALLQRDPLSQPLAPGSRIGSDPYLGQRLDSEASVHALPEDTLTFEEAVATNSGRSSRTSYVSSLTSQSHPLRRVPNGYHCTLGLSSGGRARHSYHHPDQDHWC
T1 sequence (P54289 25-956 partner limits assumed): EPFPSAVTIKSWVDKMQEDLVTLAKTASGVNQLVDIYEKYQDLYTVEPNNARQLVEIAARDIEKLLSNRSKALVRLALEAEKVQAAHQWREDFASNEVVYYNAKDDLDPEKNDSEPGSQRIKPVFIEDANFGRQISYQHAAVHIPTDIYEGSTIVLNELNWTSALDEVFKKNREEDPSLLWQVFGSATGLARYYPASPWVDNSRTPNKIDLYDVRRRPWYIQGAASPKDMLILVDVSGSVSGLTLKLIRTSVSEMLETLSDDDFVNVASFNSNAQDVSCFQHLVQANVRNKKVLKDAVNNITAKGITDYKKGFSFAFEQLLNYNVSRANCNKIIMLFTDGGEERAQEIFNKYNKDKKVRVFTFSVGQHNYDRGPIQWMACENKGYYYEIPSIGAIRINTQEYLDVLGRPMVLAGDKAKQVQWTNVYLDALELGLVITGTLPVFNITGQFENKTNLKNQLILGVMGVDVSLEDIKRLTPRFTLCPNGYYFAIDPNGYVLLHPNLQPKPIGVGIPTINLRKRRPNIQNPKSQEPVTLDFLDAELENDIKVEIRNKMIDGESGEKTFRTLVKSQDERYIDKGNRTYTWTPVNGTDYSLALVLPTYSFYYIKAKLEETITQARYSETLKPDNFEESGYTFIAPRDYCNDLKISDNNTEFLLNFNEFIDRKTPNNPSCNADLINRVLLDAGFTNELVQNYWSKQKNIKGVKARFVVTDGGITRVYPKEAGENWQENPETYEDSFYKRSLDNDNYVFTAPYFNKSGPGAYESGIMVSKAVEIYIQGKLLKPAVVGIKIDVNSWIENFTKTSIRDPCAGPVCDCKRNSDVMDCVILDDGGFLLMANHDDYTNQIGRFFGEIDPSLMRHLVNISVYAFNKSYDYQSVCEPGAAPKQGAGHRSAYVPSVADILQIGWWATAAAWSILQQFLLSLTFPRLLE
T1 sequence (P54289 957-1103 partner limits assumed): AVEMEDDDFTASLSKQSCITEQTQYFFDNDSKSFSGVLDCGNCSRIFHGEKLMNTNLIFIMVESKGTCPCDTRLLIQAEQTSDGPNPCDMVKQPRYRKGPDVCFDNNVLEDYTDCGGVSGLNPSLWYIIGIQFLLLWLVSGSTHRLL
T1 sequence (P54284 whole entry partner): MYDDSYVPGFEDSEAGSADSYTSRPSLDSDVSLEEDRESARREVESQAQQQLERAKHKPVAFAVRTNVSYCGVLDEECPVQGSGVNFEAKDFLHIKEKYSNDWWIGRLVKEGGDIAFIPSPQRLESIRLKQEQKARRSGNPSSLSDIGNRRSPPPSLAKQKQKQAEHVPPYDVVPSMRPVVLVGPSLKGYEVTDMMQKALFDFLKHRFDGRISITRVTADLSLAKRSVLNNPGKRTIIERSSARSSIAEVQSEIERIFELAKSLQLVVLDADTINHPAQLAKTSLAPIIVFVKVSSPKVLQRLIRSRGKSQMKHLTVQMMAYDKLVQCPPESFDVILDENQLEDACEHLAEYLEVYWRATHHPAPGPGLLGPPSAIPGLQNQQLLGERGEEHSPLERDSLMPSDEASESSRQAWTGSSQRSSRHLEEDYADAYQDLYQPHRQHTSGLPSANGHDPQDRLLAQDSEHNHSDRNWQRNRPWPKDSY

In the case of `Cc1nn(-c2ccccc2)nc1C(=O)N[C@@H](CC(C)C)C(=O)N[C@@H](Cc1ccc(OCc2ccccc2)cc1)C(=O)OC(C)(C)C` (relative stereo) [Example 121, [S-(R*,R*)]-3-(4-Benzyloxy-phenyl)-2-{4-methyl-2-[(5-methyl-2-phenyl-2H-[1,2,3]triazole-4-carbonyl)-amino]-pentanoylamino}-propionic acid tert-butyl ester], the “Inhibition of Calcium Flux in IMR-32 Cells % Inhibition at 10 μM” value was 25%.

`CC(C)C[C@H](NC(=O)Cc1cccs1)C(=O)N[C@@H](Cc1ccc(OCc2ccccc2)cc1)C(=O)OC(C)(C)C` (relative stereo) [Example 122, [S-(R*,R*)]-3-(4-Benzyloxy-phenyl)-2-[4-methyl-2-(2-thiophen-2-yl-acetylamino)pentanoylamino]-propionic acid tert-butyl ester]: the “Inhibition of Calcium Flux in IMR-32 Cells % Inhibition at 10 μM” value is reported as 84%.

For the molecule `CC(C)C[C@H](NC(=O)c1ccno1)C(=O)N[C@@H](Cc1ccc(OCc2ccccc2)cc1)C(=O)OC(C)(C)C` (relative stereo) [Example 123, [S-(R*,R*)]-3-(4-Benzyloxy-phenyl)-2-{2-1(isoxazole-5-carbonyl)-amino]-4-methyl-pentanoylamino}-propionic acid tert-butyl ester], the “Inhibition of Calcium Flux in IMR-32 Cells % Inhibition at 10 μM” value is listed as 67%.

For `CC(C)C[C@H](NC(=O)c1cccnc1)C(=O)N[C@@H](Cc1ccc(OCc2ccccc2)cc1)C(=O)OC(C)(C)C` (relative stereo) [Example 124, [S-(R*,R*)]-3-(4-Benzyloxy-phenyl)-2-{4-methyl-2-[(pyridine-3-carbonyl)-amino]pentanoylamino}-propionic acid tert-butyl ester], the “Inhibition of Calcium Flux in IMR-32 Cells % Inhibition at 10 μM” value is 60%.

As to `CC(C)C[C@H](NC(=O)c1cnc2ccccc2n1)C(=O)N[C@@H](Cc1ccc(OCc2ccccc2)cc1)C(=O)OC(C)(C)C` (relative stereo) [Example 126, [S-(R*,R*)]-3-(4-Benzyloxy-phenyl)-2-{4-methyl-2-[(quinoxaline-2-carbonyl)-amino]pentanoylamino}-propionic acid tert-butyl ester], the “Inhibition of Calcium Flux in IMR-32 Cells % Inhibition at 10 μM” value was 28%.

On to `CC(C)C[C@H](NC(=O)C(F)(F)C(F)(F)F)C(=O)C[C@H](Cc1ccc(OCc2ccccc2)cc1)C(=O)OC(C)(C)C` (relative stereo) [Example 127, [S-(R*,R*)]-2-(4-Benzyloxy-benzyl)-7-methyl-4-oxo-5-(2,2,3,3,3-pentafluoro-propionylamino)-octanoic acid tert-butyl ester], for which the “Inhibition of Calcium Flux in IMR-32 Cells % Inhibition at 10 μM” value turned out to be 61%.

On to `CC(C)C[C@H](NC(=O)C(F)(F)F)C(=O)N[C@@H](Cc1ccc(OCc2ccccc2)cc1)C(=O)OC(C)(C)C` (relative stereo) [Example 128, [S-(R*,R*)]-3-(4-Benzyloxy-phenyl)-2-[4-methyl-2-(2,2,2-trifluoro-acetylamino)pentanoylamino]-propionic acid tert-butyl ester], for which the “Inhibition of Calcium Flux in IMR-32 Cells % Inhibition at 10 μM” value worked out at 78%.

Turning to `CC(C)C[C@H](NC(=O)C(C)(C)C)C(=O)N[C@@H](Cc1ccc(OCc2ccccc2)cc1)C(=O)OC(C)(C)C` (relative stereo) [Example 129, [S-(R*,R*)]-3-(4-Benzyloxy-phenyl)-2-[2-(2,2-dimethyl-propionylamino)-4-methyl-pentanoylamino]-propionic acid tert-butyl ester], the “Inhibition of Calcium Flux in IMR-32 Cells % Inhibition at 10 μM” value was 74%.

As to `Cc1onc(-c2ccccc2)c1C(=O)N[C@@H](CC(C)C)C(=O)N[C@@H](Cc1ccc(OCc2ccccc2)cc1)C(=O)OC(C)(C)C` (relative stereo) [Example 131, [(S-(R*,R*)]-3-(4-Benzyloxy-phenyl)-2-{4-methyl-2-[(5-methyl-3-phenyl-isoxazole-4-carbonyl)amino]-pentanoylamino}-propionic acid tert-butyl ester], the “Inhibition of Calcium Flux in IMR-32 Cells % Inhibition at 10 μM” value came out at 44%.

With `CC(C)C[C@H](NC(=O)N1CCCCCC1)C(=O)N[C@@H](Cc1ccc(N(Cc2ccccc2)Cc2ccccc2)cc1)C(=O)NC(C)(C)C` (relative stereo) [Example 133, [S-(R*,R*)]-Azepane-1-carboxylic acid {1-[2-(4-dibenzylamino-phenyl)-1-tert-butylcarbamoyl-ethylcarbamoyl]-3-methyl-butyl}-amide], the “Inhibition of Calcium Flux in IMR-32 Cells % Inhibition at 1 μM” value is given as 54% and the “Inhibition of Calcium Flux in IMR-32 Cells % Inhibition at 10 μM” value is on record as 72%.

For the molecule `CC(C)C[C@H](NC(=O)N1CCCCCC1)C(=O)N[C@@H](Cc1ccc(C#Cc2ccccc2)cc1)C(=O)NC(C)(C)C` (relative stereo) [Example 134, [S(R*,R*)]-Azepane-1-carboxylic acid {1-[1-tert-butylcarbamoyl-2-(4-phenylethynyl-phenyl)-ethylcarbamoyl]-3-methyl-butyl}-amide], the “Inhibition of Calcium Flux in IMR-32 Cells % Inhibition at 1 μM” value was found to be 29% and the “Inhibition of Calcium Flux in IMR-32 Cells % Inhibition at 10 μM” value was 56%.

With `CC(C)C[C@H](NC(=O)N1CCOCC1)C(=O)N[C@@H](Cc1ccc(OCc2ccccc2)cc1)C(=O)N1CCCCC1` (relative stereo) [Example 151, [S(R*,R*)]-Morpholine-4-carboxylic acid {1-[1-(4-benzyloxy-benzyl)-2oxo-2-piperidin-1-ylethylcarbamoyl]-3-methyl-butyl}amide], the pIC50 was 5.37.

For `CC(C)C[C@H](NC(=O)N1CCCCCC1)C(=O)N[C@@H](Cc1ccc(OCc2ccccc2)cc1)C(=O)Nc1ccc(Br)cc1` (relative stereo) [Example 173, [S-(R*,R*)]-Azepane-1-carboxylic acid {1-[2-(4-benzyloxy-phenyl)-1-(4-bromophenylcarbamoyl)-ethylcarbamoyl]-3-methyl-butyl}-amide], the negative-log IC50 (pIC50) was 6.55.

In the case of `CC(C)C[C@H](NC(=O)N1CCCCCC1)C(=O)N[C@@H](Cc1ccc(OCc2ccccc2)cc1)C(=O)Nc1ccc(N(C)C)cc1` (relative stereo) [Example 215, [S-(R*,R*)]-Azepane-1-carboxylic acid {1-[2-(4-benzyloxy-phenyl)-1-(4-dimethylamino-phenylcarbamoyl)-ethylcarbamoyl]-3-methyl-butyl}-amide], the “Inhibition of Calcium Flux in IMR-32 Cells % Inhibition at 1 μM” value is recorded as 35% and the “Inhibition of Calcium Flux in IMR-32 Cells % Inhibition at 10 μM” value is 44%.

Turning to `CC(=O)Nc1ccc(NC(=O)[C@H](Cc2ccc(OCc3ccccc3)cc2)NC(=O)[C@H](CC(C)C)NC(=O)N2CCCCCC2)cc1` (relative stereo) [Example 216, [S-(R*,R*)]-Azepane-1-carboxylic acid {1-[1-(4-acetylamino-phenylcarbamoyl)-2-(4-benzyloxy-phenyl)-ethylcarbamoyl]-3-methyl-butyl}-amide], the “Inhibition of Calcium Flux in IMR-32 Cells % Inhibition at 1 μM” value was found to be 16% and the “Inhibition of Calcium Flux in IMR-32 Cells % Inhibition at 10 μM” value is listed as 37%.

For the molecule `CC(C)C[C@H](NC(=O)N1CCCCCC1)C(=O)N[C@@H](Cc1ccc(OCc2ccccc2)cc1)C(=O)NCc1ccco1` (relative stereo) [Example 220, [S-(R*,R*)]-Azepane-1-carboxylic acid (1-{2-(4-benzyloxy-phenyl)-1-[(furan-2-ylmethyl)-carbamoyl]-ethylcarbamoyl}-3-methyl-butyl)-amide], the “Inhibition of Calcium Flux in IMR-32 Cells % Inhibition at 1 μM” value is 40% and the “Inhibition of Calcium Flux in IMR-32 Cells % Inhibition at 10 μM” value came to 88%.

As to `CC(C)C[C@H](NC(=O)N1CCCCCC1)C(=O)N[C@@H](Cc1ccc(OCc2ccccc2)cc1)C(=O)NCc1ccc2c(c1)OCO2` (relative stereo) [Example 222, [S-(R*,R*)]-Azepane-1-carboxylic acid {1-[1-[(benzo[1,3]dioxol-5-ylmethyl)-carbamoyl]-2-(4-benzyloxy-phenyl)-ethylcarbamoyl]-3-methyl-butyl}-amide], the “Inhibition of Calcium Flux in IMR-32 Cells % Inhibition at 1 μM” value is given as 36% and the “Inhibition of Calcium Flux in IMR-32 Cells % Inhibition at 10 μM” value came to 84%.

Consider `COc1cc(NC(=O)[C@H](Cc2ccc(OCc3ccccc3)cc2)NC(=O)[C@H](CC(C)C)NC(=O)N2CCCCCC2)cc(OC)c1OC` (relative stereo) [Example 223, [S-(R*,R*)]-Azepane-1-carboxylic acid {-1-[2-(4-benzyloxy-phenyl)-1-(3,4,5-trimethoxy-phenylcarbamoyl)-ethylcarbamoyl]-3-methyl-butyl}-amide], for which the “Inhibition of Calcium Flux in IMR-32 Cells % Inhibition at 1 μM” value is given as 36% and the “Inhibition of Calcium Flux in IMR-32 Cells % Inhibition at 10 μM” value is 74%.

`CC(C)C[C@H](NC(=O)N1CCCCCC1)C(=O)N[C@@H](Cc1ccc(OCc2ccccc2)cc1)C(=O)NCCc1c[nH]c2ccccc12` (relative stereo) [Example 224, [S-(R*,R*)]-Azepane-1-carboxylic acid (1-{2-(4-benzyloxy-phenyl)-1-[2-(1H-indol-3-yl)-ethylcarbamoyl]-ethylcarbamoyl}-3-methyl-butyl)-amide]: the “Inhibition of Calcium Flux in IMR-32 Cells % Inhibition at 1 μM” value was 50% and the “Inhibition of Calcium Flux in IMR-32 Cells % Inhibition at 10 μM” value turned out to be 87%.

Take `CC(C)C[C@H](NC(=O)N1CCCCCC1)C(=O)N[C@@H](Cc1ccc(OCc2ccccc2)cc1)C(=O)NCCc1ccc(O)cc1` (relative stereo) [Example 225, [S-(R*,R*)]-Azepane-1-carboxylic acid (1-{2-(4-benzyloxy-phenyl)-1-[2-(4-hydroxy-phenyl)-ethylcarbamoyl]-ethylcarbamoyl}-3-methyl-butyl)-amide]: the “Inhibition of Calcium Flux in IMR-32 Cells % Inhibition at 1 μM” value was 55% and the “Inhibition of Calcium Flux in IMR-32 Cells % Inhibition at 10 μM” value came to 94%.

As for `CCC(CO)NC(=O)[C@H](Cc1ccc(OCc2ccccc2)cc1)NC(=O)[C@H](CC(C)C)NC(=O)N1CCCCCC1` (relative stereo) [Example 226, [S-(R*,R*)]-Azepane-1-carboxylic acid {1-[2-(4-benzyloxy-phenyl)-1-(1-hydroxymethyl-propylcarbamoyl)-ethylcarbamoyl]-3-methyl-butyl}-amide], the “Inhibition of Calcium Flux in IMR-32 Cells % Inhibition at 1 μM” value came to 37% and the “Inhibition of Calcium Flux in IMR-32 Cells % Inhibition at 10 μM” value was 84%.
